Laboratory results taken from patent publication US5936101A, “Process for the preparation of 1,2-dioxetane compounds and novel sulfur-substituted 1,2-dioxetane compounds as intermediates” (Lumigen, Inc., priority 1997, dated 1999).

Key:
[1] = Fluoride (TBAF in DMSO) induced chemiluminescence; assay type: physicochemical
[2] = Thermal stability / stability on silica of dioxetanes; assay type: physicochemical; conditions: TLC on silica versus NMR
Source text: (c) Synthesis of 4-ethylthio-4-(3-pivaloyloxyphenyl)spiro-[1,2-dioxetane-3,2'-tricyclo[3.3.1.1^3,7 ]decane] (2).

[3] = Base-induced decay of chemiluminescence of hydroxyphenyl alkylthio dioxetane in 221 buffer pH 9.6 with surfactant enhancers; assay type: physicochemical; conditions: for t1/2 (decay of chemiluminescence): 0.2 M 221 buffer, pH 9.6, 0.88 mM Mg+2, ambient temperature
Protocol: The first order decay of chemiluminescence of dioxetane 3 in 0.2 M 221 buffer, pH 9.6 containing 0.88 mM Mg^+2 and the surfactant enhancers shown below was measured at ambient temperature. Surfactant A is CTAB, B is poly(vinylbenzyltributylphosphonium chloride), C is poly(vinylbenzyltributylphosphonium chloride)-co-poly(vinylbenzyltrioctylphosphonium chloride), D is 1-trioctylphoniummethyl-4-tributylphosphonium-methylbenzene dichloride.

[4] = Base-induced decay of chemiluminescence of hydroxyphenyl alkoxy or aryloxy dioxetanes in 221 buffer pH 9.6; assay type: physicochemical; conditions: 0.2 M 221 buffer, 0.88 mM Mg+2, 1.0 mg/mL 1-trioctylphosphoniummethyl-4-tributylphosphoniummethylbenzene dichloride
Protocol: The first order decay of chemiluminescence of dioxetanes 14-19 in 0.2 M 2-methyl-2-amino-1-propanol (221) buffer, pH 9.6 containing 0.88 mM Mg^+2 and 1.0 mg/mL of 1-trioctylphosphoniummethyl-4-tributylphosphoniummethylbenzene dichloride was measured at 37° C. in a Turner Designs (Sunnyvale, Calif.) model TD-20e luminometer. The half-lives of decay of chemiluminescence (t1/2) of hydroxy-dioxetanes correlate with the times required to reach the maximum light intensity (Imax) in the alkaline phosphatase-triggered decomposition of the corresponding phosphate-dioxetanes under the same conditions. […] It is expected that, for example, the phosphate derivatives of dioxetanes 14-19 as well as others which can be produced by the process described herein will be useful in alkaline phosphatase-linkedassays known in the art.

[5] = Chemiluminescence on heating

t1/2 37° C. (half-life of decay of chemiluminescence) [4] [min] | SMILES | chemiluminescence colour ([1]; 0.1 M TBAF in DMSO) | other results
– | CCSC1(c2cccc(O)c2)OOC12C1CC3CC(C1)CC2C3 (centres unmarked) [Dioxetane 1, 4-Ethylthio-4-(3-hydroxyphenyl)spiro[1,2-dioxetane-3,2'-tricyclo[3.3.1.1^3,7]decane]] | yellow emission | chemiluminescence colour ([1]; excess TBAF in DMSO): yellow chemiluminescence
– | CCSC1(c2cccc(OC(=O)C(C)(C)C)c2)OOC12C1CC3CC(C1)CC2C3 (centres unmarked) [Dioxetane 2, 4-Ethylthio-4-(3-pivaloyloxyphenyl)spiro[1,2-dioxetane-3,2'-tricyclo-[3.3.1.1^3,7]decane]] | – | stability on silica [2]: less stable on silica; chemiluminescence colour ([1]; excess TBAF in DMSO): yellow chemiluminescence
– | Oc1cccc(C2(Sc3ccc(F)cc3)OOC23C2CC4CC(C2)CC3C4)c1 (centres unmarked) [Dioxetane 3, 4-(p-Fluorophenylthio)-4-(3-hydroxyphenyl)spiro[1,2-dioxetane-3,2'-tricyclo-[3.3.1.1^3,7]decane]] | – | t1/2 (decay of chemiluminescence) ([3]; Surfactant A (CTAB) 0.41 g/L): 11.2 min; t1/2 (decay of chemiluminescence) ([3]; Surfactant B (poly(vinylbenzyltributylphosphonium chloride)) 0.5 g/L): 4.2 min; t1/2 (decay of chemiluminescence) ([3]; Surfactant C (poly(vinylbenzyltributylphosphonium chloride)-co-poly(vinylbenzyltrioctylphosphonium chloride)) 0.5 g/L): 2.9 min; t1/2 (decay of chemiluminescence) ([3]; Surfactant D (1-trioctylphoniummethyl-4-tributylphosphonium-methylbenzene dichloride) 1.0 g/L): 2.0 min; kinetics for light emission compared with dioxetane 6 or alkoxy-substituted analogues ([3]; alkaline amine buffer containing metal salts): comparable to dioxetane 6
– | CC(C)(C)C(=O)Oc1cccc(C2(Sc3ccc(F)cc3)OOC23C2CC4CC(C2)CC3C4)c1 (centres unmarked) [Dioxetane 4, 4-(p-Fluorophenylthio)-4-(3-pivaloyloxyphenyl)spiro[1,2-dioxetane-3,2'tricyclo-[3.3.1.1^3,7]decane]] | yellow emission | chemiluminescence colour ([1]; excess TBAF in DMSO): red chemiluminescence
– | Oc1cccc(C2(SCC(F)(F)F)OOC23C2CC4CC(C2)CC3C4)c1 (centres unmarked) [Dioxetane 5, 4-(2,2,2-trifluoroethylthio)-4-(3-hydroxyphenyl)spiro[1,2-dioxetane-3,2'-tricyclo[3.3.1.1^3,7]decane]] | – | chemiluminescence colour ([1]; excess TBAF in DMSO): orange-yellow light
– | COC1(c2cccc(O)c2)OOC12C1CC3CC(C1)CC2C3 (centres unmarked) [Dioxetane 6, 4-(3-Hydroxyphenyl)-4-methoxyspiro[1,2-dioxetane-3,2'-tricyclo[3.3.1.1^3,7]decane]] | blue emission | –
– | CC(C)OC1(c2cccc(O)c2)OOC12C1CC3CC(C1)CC2C3 (centres unmarked) [Dioxetane 7, 4-Isopropoxy-4-(3-hydroxyphenyl)spiro[1,2-dioxetane-3,2'-tricyclo[3.3.1.1^3,7]decane]] | blue emission | –
– | C=CCOC1(c2cccc(O)c2)OOC12C1CC3CC(C1)CC2C3 (centres unmarked) [Dioxetane 8, 4-(3-Hydroxyphenyl)-4-(2-propenyloxy) spiro[1,2-dioxetane-3,2'-tricyclo[3.3.1.1^3,7]decane]] | blue emission | –
– | N#CCCOC1(c2cccc(O)c2)OOC12C1CC3CC(C1)CC2C3 (centres unmarked) [Dioxetane 9, 4-(2-Cyanoethoxy)-4-(3-hydroxyphenyl)spiro[1,2-dioxetane-3,2'-tricyclo-[3.3.1.1^3,7]decane]] | blue emission | –
– | OCCOC1(c2cccc(O)c2)OOC12C1CC3CC(C1)CC2C3 (centres unmarked) [Dioxetane 10, 4-(2-Hydroxyethoxy)-4-(3-hydroxyphenyl)spiro[1,2-dioxetane-3,2'-tricyclo-[3.3.1.1^3,7]decane]] | blue emission | –
– | Oc1cccc(C2(Oc3ccccc3)OOC23C2CC4CC(C2)CC3C4)c1 (centres unmarked) [Dioxetane 11, 4-(3-Hydroxyphenyl)-4-phenoxyspiro[1,2-dioxetane-3,2'-tricyclo[3.3.1.1^3,7]decane]] | blue emission | –
0.16 | Oc1cccc(C2(OC(C(F)(F)F)C(F)(F)F)OOC23C2CC4CC(C2)CC3C4)c1 (centres unmarked) [Dioxetane 14, 4-(Hexafluoroisopropoxy)-4-(3-hydroxyphenyl)spiro[1,2-dioxetane-3,2'-tricyclo-[3.3.1.1^3,7]decane]] | – | –
3.7 | Oc1cccc(C2(OCC(Cl)(Cl)Cl)OOC23C2CC4CC(C2)CC3C4)c1 (centres unmarked) [Dioxetane 15, 4-(3-Hydroxyphenyl)-4-(2 2,2-trichloroethoxy)spiro[1,2-dioxetane-3,2'-tricyclo-[3.3.1.1^3,7]decane]] | – | –
4.1 | Oc1cccc(C2(OCC(Cl)Cl)OOC23C2CC4CC(C2)CC3C4)c1 (centres unmarked) [Dioxetane 16, 4-(2,2-Dichloroethoxy)-4-(3-hydroxyphenyl)spiro[1,2-dioxetane-3,2'-tricyclo-[3.3.1.1^3,7]decane]] | – | –
3.4 | Oc1cccc(C2(OCC(F)(F)C(F)(F)F)OOC23C2CC4CC(C2)CC3C4)c1 (centres unmarked) [Dioxetane 17, 4-(3-Hydroxyphenyl)-4-(2,2,3,3,3-pentafluoropropoxy)spiro[1,2-dioxetane-3,2'-tricyclo[3.3.1.1^3,7]decane]] | – | –
1.76 | Oc1cccc(C2(Oc3c(F)cccc3F)OOC23C2CC4CC(C2)CC3C4)c1 (centres unmarked) [Dioxetane 19, 4-(2',6'-Difluorophenoxy)-4-(3-hydroxyphenyl)spiro[1,2-dioxetane-3,2'-tricyclo[3.3.1.1^3,7]decane]] | – | –
– | COC1(c2cccc(OC(=O)C(C)(C)C)c2)OOC12C1CC3CC(C1)CC2C3 (centres unmarked) [Dioxetane 20, 4-Methoxy-4-(3-pivaloyloxyphenyl)spiro[1,2-dioxetane-3,2'-tricyclo-[3.3.1.1^3,7]decane]] | blue emission | –
– | COC1(c2cccc(O[Si](C)(C)C(C)(C)C)c2)OOC12C1CC3CC(C1)CC2C3 (centres unmarked) [Dioxetane 21] | blue chemiluminescence | chemiluminescence on heating [5]: blue chemiluminescence
– | COC1(c2cccc(O[Si](c3ccccc3)(c3ccccc3)C(C)(C)C)c2)OOC12C1CC3CC(C1)CC2C3 (centres unmarked) [Dioxetane 22] | blue chemiluminescence | chemiluminescence on heating [5]: blue chemiluminescence

SMILES | t1/2 37° C. (half-life of decay of chemiluminescence) [4] [min] | chemiluminescence colour ([1]; 0.1 M TBAF in DMSO) | other results
Oc1cccc(C2(OCC(F)(F)C(F)(F)C(F)(F)F)OOC23C2CC4CC(C2)CC3C4)c1 (centres unmarked) [Dioxetane 18, 4-(2,2,3,3,4,4,4-Heptafluorobutoxy)-4-(3-hydroxyphenyl)spiro[1,2-dioxetane-3,2'-tricyclo[3.3.1.1^3,7]decane]] | 4.9 | – | –
